Data taken from patent US20030045515A1, “Combination medicament for treatment of neoplastic diseases” (priority 2001, published 2003).

What was measured:
Format in all cases: in vivo, NMRI nu/nu female mice
[1] = test system: Colo 320 DM cells (human colon cancer); assay: Tumour growth in nude mice inoculated with Colo 320 DM cells; settings: Colo 320 DM tumours, 21 days, control 0.55
Method: (§1) The experiments were conducted with NMRI nu/nu female mice (M&B, Ry, Denmark) kept under semi-sterile conditions. The mice were 6 weeks old on arrival, and they were allowed to acclimatise for approximately 3 weeks before the experiments were initiated. The bedding was autoclaved at 121° C. for 20 minutes, the food was sterilised by irradiation, and the drinking water was filtered through a 0.2 μm filter. All handling of the mice was done in laminar flow benches.
Each experiment employed 40-60 mice which were inoculated in both flanks and left for the tumours to develop. Following that, the mice were divided into groups, each containing 10 mice and thus 18-20 tumors, according to the size of the tumour, i.e. large, medium or small. […]
(§2) The tumours were measured using digital callipers before treatment start (=baseline), twice weekly for the duration of the study, and at the end of the study. Tumour area (A) was calculated as the product of the two measured perpendicular diameters; A=d1×d2. For mice with only one tumour, the area of this tumour was calculated and used in the statistical analysis. For mice with two tumours, the average of the two tumour areas was calculated and used in the statistical analysis.
For each animal, an individual curve of the tumour areas observed during the study was plotted against time. […] Within each group, the mean of the tumour growth rate was calculated. […]

[2] = test system: HT 1080 cells (human fibrosarcoma); assay: Tumour growth in nude mice inoculated with HT 1080 cells; settings: HT 1080 tumours, 14 days
Method: The experiments were conducted with NMRI nu/nu female mice (M&B, Ry, Denmark) kept under semi-sterile conditions. The mice were 6 weeks old on arrival, and they were allowed to acclimatise for approximately 3 weeks before the experiments were initiated. The bedding was autoclaved at 121° C. for 20 minutes, the food was sterilised by irradiation, and the drinking water was filtered through a 0.2 μm filter. All handling of the mice was done in laminar flow benches. Each experiment employed 40-60 mice which were inoculated in both flanks and left for the tumours to develop. Following that, the mice were divided into groups, each containing 10 mice and thus 18-20 tumors, according to the size of the tumour, i.e. large, medium or small. Unless stated otherwise all doses have been given daily. The tumours were measured using digital callipers before treatment start (=baseline), twice weekly for the duration of the study, and at the end of the study. Tumour area (A) was calculated as the product of the two measured perpendicular diameters; […] For mice with only one tumour, the area of this tumour was calculated and used in the statistical analysis. For mice with two tumours, the average of the two tumour areas was calculated and used in the statistical analysis. For each animal, an individual curve of the tumour areas observed during the study was plotted against time. The trend was an increasing growth rate of the tumours. In order to ensure an approximate linear correspondence between tumour data and time, the observations were transformed by taking the square root of the tumour areas, corresponding to tumour size in one dimension. As a summary measure of the repeated measurements of tumour areas during the study (tumour growth rate), the estimated slope of the individual curves of the square root transformed curves was used [Matthews, Br. Med. […] The slope should be interpreted as a measure of the tumour growth rate and was estimated using linear regression analysis by time on the observations during the study. Within each group, the mean of the tumour growth rate was calculated. The HT 1080 cell line originates from a patient with human fibrosarcoma, and it was obtained from ATCC. The mice were inoculated with 2×10^6 HT 1080 cells in 0.2 ml in each flank, and the tumours were left to grow for approximately 4 days.

[3] = test system: NYH cells (small cell lung cancer); assay: Tumour growth in nude mice inoculated with NYH cells; settings: NYH tumours, 14 days
Method: as §1
Each experiment employed 40-60 mice which were inoculated in both flanks and left for the tumours to develop. Following that, the mice were divided into groups, each containing 10 mice and thus 18-20 tumors, according to the size of the tumour, i.e. large, medium or small. Unless stated otherwise all doses have been given daily.
as §2
For each animal, an individual curve of the tumour areas observed during the study was plotted against time. The trend was an increasing growth rate of the tumours. In order to ensure an approximate linear correspondence between tumour data and time, the observations were transformed by taking the square root of the tumour areas, corresponding to tumour size in one dimension. As a summary measure of the repeated measurements of tumour areas during the study (tumour growth rate), the estimated slope of the individual curves of the square root transformed curves was used [Matthews, Br. Med. J., 300, 230-235, 1990]. The slope should be interpreted as a measure of the tumour growth rate and was estimated using linear regression analysis by time on the observations during the study. Within each group, the mean of the tumour growth rate was calculated.
The NYH cell line originates from a patient with small cell lung cancer. The cell line was obtained from Rigshospitalet, Copenhagen, Denmark.
The mice were inoculated with 1×10^7 NYH cells in 0.2 ml in each flank, and the tumours were left to grow for approximately 4 days. The duration of the dosing was 14 days.

N#CNC(=Nc1ccncc1)NCCCCCCOc1ccc(Cl)cc1 [Compound A, N-cyano-N′-(6-(4-chlorophenoxy)hexyl)-N″(4-pyridyl)guanidine] was tested, and the Mean increment/day ([1]; compound A 50 mg/kg p.o. daily) was 0.22 mm/day, the Mean increment/day ([2]; compound A 50 mg/kg p.o. daily, TNP-470 experiment, control 0.73) was 0.14 mm/day and the Mean increment/day ([2]; compound A 50 mg/kg p.o. daily, etoposide experiment, control 0.45) was 0.21 mm/day. For the same molecule, the Mean increment/day ([2]; compound A 50 mg/kg p.o. daily, paclitaxel experiment, control 0.67) was 0.30 mm/day, the Mean increment/day ([2]; compound A 50 mg/kg p.o. daily, seocalcitol experiment, control 0.98) was 0.24 mm/day and the Mean increment/day ([3]; compound A 15 mg/kg p.o. daily, cisplatin experiment, control 0.90) was 0.02 mm/day. It also gave a Mean increment/day ([3]; compound A 15 mg/kg p.o. daily, cyclophosphamide experiment, control 0.61) of 0.26 mm/day and a Mean increment/day ([3]; compound A 15 mg/kg p.o. daily, etoposide experiment, control 0.67) of 0.34 mm/day.
Work on C=C1/C(=C\C=C2/CCC[C@]3(C)[C@@H]([C@H](C)/C=C/C=C/C(O)(CC)CC)CC[C@@H]23)C[C@@H](O)C[C@@H]1O [Seocalcitol] yielded a Mean increment/day ([2]; seocalcitol 2 μg/kg p.o. daily, control 0.98) of 0.95 mm/day.
For COc1cc([C@@H]2c3cc4c(cc3[C@@H](O[C@@H]3O[C@@H]5CO[C@@H](C)O[C@H]5[C@H](O)[C@H]3O)[C@H]3COC(=O)[C@H]23)OCO4)cc(OC)c1O [Etoposide], the Mean increment/day ([2]; etoposide 10 mg/kg p.o. daily, control 0.45) was -0.01 mm/day and the Mean increment/day ([3]; etoposide 10 mg/kg p.o. daily, control 0.67) was 0.41 mm/day.
O=P1(N(CCCl)CCCl)NCCCO1 (centres unmarked) [Cyclophosphamide] was tested, and the Mean increment/day ([3]; cyclophosphamide 7 mg/kg p.o. daily, control 0.61) was 0.40 mm/day.
Molecule CO[C@@H]1[C@H](OC(=O)NC(=O)CCl)CC[C@]2(CO2)[C@H]1[C@@]1(C)O[C@@H]1CC=C(C)C [TNP-470] has a Mean increment/day ([1]; TNP-470 9 mg/kg s.c. daily) of 0.29 mm/day and a Mean increment/day ([2]; TNP-470 9 mg/kg s.c. daily, control 0.73) of 0.51 mm/day.
Work on CC(=O)O[C@H]1C(=O)[C@@]2(C)[C@H]([C@H](OC(=O)c3ccccc3)[C@]3(O)C[C@H](OC(=O)[C@H](O)[C@@H](NC(=O)c4ccccc4)c4ccccc4)C(C)=C1C3(C)C)[C@]1(OC(C)=O)CO[C@@H]1C[C@@H]2O [Paclitaxel] yielded a Mean increment/day ([2]; paclitaxel 1 mg/kg s.c. daily, control 0.67) of 0.39 mm/day and a Mean increment/day ([2]; paclitaxel 2 mg/kg s.c. daily, control 0.67) of 0.15 mm/day.
Molecule N.N.[Cl][Pt][Cl] [Cisplatin] has a Mean increment/day ([3]; cisplatin 5 mg/kg i.p. once weekly, control 0.90) of 0.32 mm/day.
